Results published in ChEMBL document CHEMBL4765384, “Development of a metabolically stable topoisomerase I poison as anticancer agent” (Eur J Med Chem, 2020).
pIC50: −log10 of the molar value. Values after ≈ are worked out from the molar mass of the structure shown.

Experiments:
[1] = target: T1, DNA topoisomerase 1 (Homo sapiens, UniProt P11387); assay: Inhibition of recombinant human Top1 expressed in baculovirus infected sf9 insect cells using supercoiled pBS (SK+) DNA as substrate incubated for 30 mins by ethidium bromide staining based agarose gel electrophoresis analysis
T1 sequence (P11387 whole entry): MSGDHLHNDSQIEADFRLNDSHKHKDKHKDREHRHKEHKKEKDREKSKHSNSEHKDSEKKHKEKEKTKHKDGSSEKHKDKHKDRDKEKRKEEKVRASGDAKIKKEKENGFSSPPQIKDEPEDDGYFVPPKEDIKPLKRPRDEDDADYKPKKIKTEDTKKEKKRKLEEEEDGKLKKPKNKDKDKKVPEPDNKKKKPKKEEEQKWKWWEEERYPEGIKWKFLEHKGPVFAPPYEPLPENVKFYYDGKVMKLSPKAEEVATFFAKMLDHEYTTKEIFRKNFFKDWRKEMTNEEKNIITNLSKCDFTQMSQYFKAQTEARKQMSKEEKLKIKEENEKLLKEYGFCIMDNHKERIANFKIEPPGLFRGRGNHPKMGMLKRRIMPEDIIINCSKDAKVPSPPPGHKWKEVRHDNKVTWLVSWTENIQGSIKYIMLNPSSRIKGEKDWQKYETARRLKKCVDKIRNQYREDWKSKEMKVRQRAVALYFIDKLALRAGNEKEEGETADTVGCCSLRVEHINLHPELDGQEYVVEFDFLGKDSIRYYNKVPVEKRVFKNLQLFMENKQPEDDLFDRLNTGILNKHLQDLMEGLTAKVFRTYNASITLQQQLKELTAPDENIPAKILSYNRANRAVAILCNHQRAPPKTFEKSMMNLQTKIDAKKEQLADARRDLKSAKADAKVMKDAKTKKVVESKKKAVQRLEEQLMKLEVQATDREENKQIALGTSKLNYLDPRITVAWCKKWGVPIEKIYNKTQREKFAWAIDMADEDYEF

[2] = system: HEK293; assay: Cytotoxicity against HEK293 cells assessed as reduction in cell viability after 48 hr by MTT assay; format: cell-based; conditions: Homo sapiens, HEK293, 48 h
[3] = Stability in human plasma assessed as parent compound remaining after 2 hrs; format: ADME, cell-free; conditions: read-out: Stabilty
[4] = Stability in human liver microsomes assessed as parent compound remaining after 60 mins by LC-MS/MS analysis; format: ADME, Microsome; conditions: read-out: Stabilty
[5] = Half life in human liver microsomes by LC-MS/MS analysis; format: ADME, Microsome
[6] = Lipophilicity, logD of the compound at pH 7.4; format: physicochemical; conditions: buffer
[7] = Aqueous solubility of compound; format: physicochemical
[8] = Intrinsic clearance in human liver microsomes after 60 mins in presence of cofactor by LC-MS/MS analysis; format: ADME, Microsome; conditions: 1 h
[9] = Stability in human liver microsomes assessed as parent compound remaining after 60 mins in presence of cofactor by LC-MS/MS analysis; format: ADME, Microsome; conditions: read-out: Stabilty
[10] = system: MCF7; assay: Cytotoxicity against human MCF7 cells assessed as reduction in cell viability after 48 hr by MTT assay; format: functional, cell-based; conditions: MCF7, 48 h
[11] = target: T1, DNA topoisomerase 1; assay: Inhibition of Top1 in human MCF7 cells using supercoiled pBS (SK+) DNA as substrate incubated for 30 mins by ethidium bromide staining based agarose gel electrophoresis analysis; format: cell-based

| Compound | pIC50 [1] | pIC50 [2] | remaining at 2 h [3] | remaining at 1 h [4] | half-life [5] | CLH [8] | remaining at 1 h [9] | further results |
| --- | --- | --- | --- | --- | --- | --- | --- | --- |
| COc1ccc(-c2ccc3ncc(-c4nnco4)c(NCCCn4cccc4)c3c2)cc1 | < 5.00 | – | – | – | – | – | – | – |
| CC[C@@]1(O)C(=O)OCc2c1cc1n(c2=O)Cc2cc3ccccc3nc2-1 [CAMPTOTHECIN] | – | 5.06 | – | – | – | – | – | – |
| COc1ccc(-c2ccc3ncc(-c4nnco4)c(NCCCN4CCCC4)c3c2)cc1 | < 5.00 | – | – | – | – | – | – | – |
| Cc1ccc(-c2ccc3ncc(-c4nnco4)c(NCCCn4ccnc4)c3c2)cc1 | – | – | 90.8% | 0% | 7.77 min | 89.3 µL/min/mg | 93% | logD [6]: > 3.5; solubility [7]: 0.3 µg/mL (≈ 0.731 µM) |
| Nc1ccc(-c2ccc3ncc(-c4nnco4)c(NCCCn4ccnc4)c3c2)cc1 | – | < 5.00 | 91.3% | 53.7% | 69.1 min | 10 µL/min/mg | 93.8% | pIC50 [10]: 5.60; pIC50 [11]: 5.60 |
| COc1ccc(-c2ccc3ncc(-c4nnco4)c(NCCCn4ccnc4)c3c2)cc1 | – | – | – | 1.68% | 9.94 min | 69.7 µL/min/mg | 112% | – |
